Source: patent US20030153731A1, “Endothelial cell-leukocyte adhesion molecules (ELAMs) and molecules involved in leukocyte adhesion (MILAs)” (priority 1989, published 2003)

T1: 1,3-fucosyl transferase in extracts from CHO cells transfected with clone 7.2 (Homo sapiens, UniProt P22083)
T1 construct: expressed in transfected cells; host or cells: CHO cells transfected with clone 7.2; Triton X-100 lysate
T1 sequence (P22083 1-405 isoform P22083-2): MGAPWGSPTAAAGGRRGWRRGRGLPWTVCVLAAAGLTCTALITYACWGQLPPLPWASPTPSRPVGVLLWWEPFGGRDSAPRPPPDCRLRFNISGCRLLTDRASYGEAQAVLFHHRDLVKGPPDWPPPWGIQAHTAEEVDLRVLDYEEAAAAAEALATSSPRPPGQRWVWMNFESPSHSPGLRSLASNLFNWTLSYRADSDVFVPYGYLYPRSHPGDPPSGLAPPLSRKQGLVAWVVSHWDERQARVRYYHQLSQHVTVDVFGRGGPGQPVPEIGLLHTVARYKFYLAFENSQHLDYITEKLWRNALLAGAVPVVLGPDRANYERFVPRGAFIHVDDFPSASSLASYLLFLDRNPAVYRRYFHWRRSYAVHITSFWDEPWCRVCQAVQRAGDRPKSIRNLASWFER


Experiments:
[1] = target: T1, 1,3-fucosyl transferase in extracts from CHO cells transfected with clone 7.2; experiment: fucosyl transferase enzyme assay: linking 14C-fucose to acceptor molecules; type: biochemical; conditions: for Efficiency of Fucosylation: enzyme freshly produced from transfected CHO cells, 1 hour at 37° C; for linking of fucose to acceptor by the induced enzyme: extract of CHO cells transfected with clone 7.2
Procedure: The assays tested the ability of the enzyme to link radioactively labelled fucose to an acceptor molecule. We performed the assays as follows.
We prepared assay samples containing 10 μl enzyme, 8 μl cocktail and 2 μl 10×acceptor. We prepared the enzyme by isolating about 1.5 million CHO cells transfected with clone 7.2 and lysing them by sonication for 15 seconds in 150 μl ice-cold 1% Triton X-100 in water. The cocktail contained 75 μM ^14C-GDP fucose, 100 mM ATP, 500 mM L-fucose, 1 M MnCl2 and 1 M cacodylate at pH 6.2. 10×acceptor contained, variously, 200 mM LacNAc, Lac-N-biose, or lactose, 250 mM phenyl-β-D-galactoside, or 50 mM 2′-fucosyllactose. We incubated the assay samples for 1 hour at 37° C. We stopped the reaction by addition of 20 μl ethanol. We diluted the sample with 560 μl water and centrifuged in an EPPENDORF centrifuge for 5 minutes at high speed.
We had prepared a DOWEX 1×2-400 column (Sigma Chemical Co.) to separate the unconverted ^14C fucose-GDP from the converted. We loaded the matrix into a large column and washed it with 10 volumes of iN NaOH, followed by 5 volumes of water, followed by 10 volumes of 5% concentrated formic acid. Then we repeated this wash cycle. We used this material to create small columns of 0.4 ml. We prepared the small columns for use by washing them with 10 volumes of water.
We loaded 200 μl of the sample onto the small column, collected the eluate, rinsed with 2 ml water and collected it into the eluate. We determined the radioactivity of this eluate by scintillation counting.

HL-60 cells; RAMOS cells = experiment: cell binding to rsELAM1-coated plates; type: cell-based, human
Procedure: To a 6 cm diameter Petri dish of bacteriologic plastic (e.g., Falcon 110070) we added 2.5 ml of 50 mM Tris buffer, pH 9.5. To this we added 10 μg of pure rsELAM1. We incubated the plate for 60 minutes at room temperature to allow the rsELAM1 to bind to the plate. Then we aspirated the medium and replaced it with PBS containing 10 mg/ml bovine serum albumin. We incubated the plates overnight at 40 in this solution to block remaining protein binding sites on the plates. We warmed the plates to room temperature, washed them with medium containing 10% fetal calf serum, and incubated them with 2 ml of cells (2×10^6 ml^−1) for 20 minutes. We aspirated the medium and washed the plates twice with 3 ml each of medium (RPMI 1640 with 10% serum). Then we examined the plates by microscopy.
A second assay would test the ability of a small molecule to inhibit cell binding to ELAM itself. We have developed such an assay with rsELAM1 which works in 96 well microtiter plates. These plates, made of bacteriologic plastic (e.g. Linbro/Titertek #76-232-050), are incubated with 0.5 μg per well of rsELAM1 in 50 μl of 15 mM sodium carbonate/35 mM sodium bicarbonate, pH 9.2, overnight at 40. The plates are then blocked for one hour at room temperature with PBS containing 10 mg/ml of bovine serum albumin, and then adhesion assays performed as described in Example VIII using, e.g., HL-60 cells, 2×10^6/ml, 50 μl per well. Under these conditions HL-60 cells bind well to rsELAM1, providing a convenient microassay for screening. One would identify inhibitors by their ability to inhibit HL-60 binding to the plate. Alternatively, one could use an ELAM ligand in this assay, using as the probe a cell line that stably expresses an ELAM.

Row | Efficiency of Fucosylation [1] | linking of fucose to acceptor by the induced enzyme [1] | Molecule | binding of HL-60 cells to rsELAM1 in 96 well microtiter plates (HL-60 cells; RAMOS cells; 0.5 μg per well rsELAM1, HL-60 2×10^6/ml, 50 μl per well) | binding of HL-60 cells to rsELAM1-coated plates (HL-60 cells; RAMOS cells; 6 cm Petri dish, 10 μg rsELAM1) | binding of RAMOS cells to rsELAM1-coated plates (HL-60 cells; RAMOS cells; 6 cm Petri dish, 10 μg rsELAM1)
1 | 76 picomoles/mg Total protein · h | did not link fucose | CC(=O)N[C@@H]1[C@@H](O[C@@H]2O[C@H](CO)[C@H](O)[C@H](O)[C@H]2O)[C@H](O)[C@@H](CO)O[C@@H]1O [Lac-N-Biose, Lac-N-biose] | – | – | –
2 | 290 picomoles/mg Total protein · h | linked fucose | OC[C@H]1O[C@@H](O[C@H]2[C@H](O)[C@@H](O)C(O)O[C@@H]2CO)[C@H](O)[C@@H](O)[C@H]1O (some centres unmarked) [Lactose, lactose] | – | – | –
3 | Not detectable | did not link fucose | OC[C@H]1O[C@@H](Oc2ccccc2)[C@H](O)[C@@H](O)[C@H]1O [PhβDgal, phenyl-β-D-galactoside] | – | – | –
4 | – | – | rsELAM1: portion of the extracellular domain of ELAM1 encoded by nucleotides 141 to 1790 of FIG. 1 (protein, UniProt P16581 22-556, looked up, extracellular domain) extracellular domain: WSYNTSTEAMTYDEASAYCQQRYTHLVAIQNKEEIEYLNSILSYSPSYYWIGIRKVNNVWVWVGTQKPLTEEAKNWAPGEPNNRQKDEDCVEIYIKREKDVGMWNDERCSKKKLALCYTAACTNTSCSGHGECVETINNYTCKCDPGFSGLKCEQIVNCTALESPEHGSLVCSHPLGNFSYNSSCSISCDRGYLPSSMETMQCMSSGEWSAPIPACNVVECDAVTNPANGFVECFQNPGSFPWNTTCTFDCEEGFELMGAQSLQCTSSGNWDNEKPTCKAVTCRAVRQPQNGSVRCSHSPAGEFTFKSSCNFTCEEGFMLQGPAQVECTTQGQWTQQIPVCEAFQCTALSNPERGYMNCLPSASGSFRYGSSCEFSCEQGFVLKGSKRLQCGPTGEWDNEKPTCEAVRCDAVHQPPKGLVRCAHSPIGEFTYKSSCAFSCEEGFELHGSTQLECTSQGQWTEEVPSCQVVKCSSLAVPGKINMSCSGEPVFGTVCKFACPEGWTLNGSAARTCGATGHWSGLLPTCEAPTESNIP | bind well | bind to rsELAM1-coated plates | do not bind to these plates

Row | Molecule | Efficiency of Fucosylation [1] | linking of fucose to acceptor by the induced enzyme [1] | binding of HL-60 cells to rsELAM1 in 96 well microtiter plates (HL-60 cells; RAMOS cells; 0.5 μg per well rsELAM1, HL-60 2×10^6/ml, 50 μl per well) | binding of HL-60 cells to rsELAM1-coated plates (HL-60 cells; RAMOS cells; 6 cm Petri dish, 10 μg rsELAM1) | binding of RAMOS cells to rsELAM1-coated plates (HL-60 cells; RAMOS cells; 6 cm Petri dish, 10 μg rsELAM1)
5 | CC(=O)N[C@H]1C(O)O[C@H](CO)[C@@H](O[C@@H]2O[C@H](CO)[C@H](O)[C@H](O)[C@H]2O)[C@@H]1O (some centres unmarked) [LacNAc] | 1110 picomoles/mg Total protein · h | linked fucose | – | – | –
